In a compilation of properties of binary mixtures (doi:10.1016/j.seppur.2020.117103):
Blank lines part the entries; values can stand above or below the compound they belong to.

Experiment: xn = mol fraction of the nth substance listed
Conditions: 298.15 K, 100 kPa

speed of sound (x2 = 0): 1851 m/s
speed of sound (x2 = 0.2134): 1797 m/s
speed of sound (x2 = 0.345): 1751 m/s
speed of sound (x2 = 0.3836): 1729 m/s
speed of sound (x2 = 0.6181): 1592 m/s
speed of sound (x2 = 0.6948): 1524 m/s
speed of sound (x2 = 0.8944): 1285 m/s
SMILES: CC[n+]1ccn(C)c1.N#C[S-] + CCO

speed of sound (x1 = 1): 1142 m/s
SMILES: CCO + CC[n+]1ccn(C)c1.N#C[S-]

speed of sound (x1 = 1): 1103 m/s
SMILES: CO + CC[n+]1ccn(C)c1.N#C[S-]

speed of sound (x2 = 0): 1851 m/s
speed of sound (x2 = 0.2018): 1813 m/s
speed of sound (x2 = 0.3185): 1780 m/s
speed of sound (x2 = 0.4076): 1750 m/s
speed of sound (x2 = 0.5037): 1711 m/s
speed of sound (x2 = 0.5936): 1655 m/s
speed of sound (x2 = 0.6923): 1585 m/s
speed of sound (x2 = 0.805): 1477 m/s
speed of sound (x2 = 0.9014): 1328 m/s
SMILES: CC[n+]1ccn(C)c1.N#C[S-] + CO
